We go through one substance from US7186836B2 (priority 2002, dated 2007).

In the experiment the target is α7 nAChR subtype (Rattus norvegicus, UniProt Q05941). It is filed as binding. Particulars: read-out: KD of radioligand (saturation curves, one site model).
Chain of α7 nAChR subtype (Q05941 23-502 limits assumed): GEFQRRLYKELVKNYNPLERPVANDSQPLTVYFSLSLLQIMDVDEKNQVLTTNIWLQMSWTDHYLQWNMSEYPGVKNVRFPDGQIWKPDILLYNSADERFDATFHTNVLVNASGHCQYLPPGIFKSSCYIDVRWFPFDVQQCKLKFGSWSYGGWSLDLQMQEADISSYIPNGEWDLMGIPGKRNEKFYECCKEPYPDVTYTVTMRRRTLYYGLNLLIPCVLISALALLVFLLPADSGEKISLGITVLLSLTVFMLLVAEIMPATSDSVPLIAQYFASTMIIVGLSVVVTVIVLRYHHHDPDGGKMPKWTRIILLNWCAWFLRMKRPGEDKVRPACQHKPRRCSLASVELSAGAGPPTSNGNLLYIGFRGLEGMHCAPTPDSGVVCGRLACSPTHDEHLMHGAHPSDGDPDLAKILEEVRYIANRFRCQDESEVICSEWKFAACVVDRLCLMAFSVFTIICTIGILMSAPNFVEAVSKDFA

In the case of [^125I]-α-Bungarotoxin [[^125I]-α-BTX], the Kd turned out to be 1.67 nM.
